Assay results as given in article PMC5761851, “Application of a phenotypic drug discovery strategy to identify biological and chemical starting points for inhibition of TSLP production in lung epithelial cells” (PLoS ONE, 2018).

Experiments:
[1] = target: T1, choline transporter (CHT1) (Homo sapiens, UniProt Q9GZV3); experiment: BioPrint panel: choline transporter (CHT1) (h) (antagonist); type: binding; details: 1 micromolar, read-out: percentage of inhibition of activity
T1 construct: purchased Eurofins Pharma Discovery Services (KinaseProfiler; Cerep BioPrint panel)
Text: (§1) Supplement pone.0189247.s004.xlsx, sheet "Bioprint Selectivity Panel" | column: %

[2] = target: T2, MMP-1 (Homo sapiens, UniProt P03956); experiment: BioPrint panel: MMP-1 (h); type: biochemical; details: 1 micromolar
T2 construct: purchased Eurofins Pharma Discovery Services (KinaseProfiler; Cerep BioPrint panel)
Text: as §1

[3] = target: T3, PAF (Homo sapiens, UniProt P25105); experiment: BioPrint panel: PAF (h) (agonist); type: binding; details: 1 micromolar, read-out: percentage of inhibition of activity
T3 construct: purchased Eurofins Pharma Discovery Services (KinaseProfiler; Cerep BioPrint panel)
Text: as §1

[4] = target: T4, ETB (Homo sapiens, UniProt P24530); experiment: BioPrint panel: ETB (h) (agonist); type: binding; details: 1 micromolar, read-out: percentage of inhibition of activity
T4 construct: purchased Eurofins Pharma Discovery Services (KinaseProfiler; Cerep BioPrint panel)
Text: as §1

[5] = target: T5, COX1 (Homo sapiens, UniProt P23219); experiment: BioPrint panel: COX1 (h); type: biochemical; details: 1 micromolar, read-out: percentage of inhibition of activity
T5 construct: purchased Eurofins Pharma Discovery Services (KinaseProfiler; Cerep BioPrint panel)
Text: as §1

[6] = target: T6, 5-HT2A (Homo sapiens, UniProt P28223); experiment: BioPrint panel: 5-HT2A (h) (agonist); type: binding; details: 1 micromolar, read-out: percentage of inhibition of activity
T6 construct: purchased Eurofins Pharma Discovery Services (KinaseProfiler; Cerep BioPrint panel)
Text: as §1

[7] = target: T7, GR (Homo sapiens, UniProt P04150); experiment: BioPrint panel: GR (h) (agonist); type: binding; details: 1 micromolar, read-out: percentage of inhibition of activity
T7 construct: purchased Eurofins Pharma Discovery Services (KinaseProfiler; Cerep BioPrint panel)
Text: as §1

[8] = target: T8, GABAB(1b) (Homo sapiens, UniProt Q9UBS5); experiment: BioPrint panel: GABAB(1b) (h) (antagonist); type: binding; details: 1 micromolar, read-out: percentage of inhibition of activity
T8 construct: purchased Eurofins Pharma Discovery Services (KinaseProfiler; Cerep BioPrint panel)
Text: as §1

[9] = target: T9, norepinephrine transporter (Homo sapiens, UniProt P23975); experiment: BioPrint panel: norepinephrine transporter (h) (antagonist); type: binding; details: 1 micromolar, read-out: percentage of inhibition of activity
T9 construct: purchased Eurofins Pharma Discovery Services (KinaseProfiler; Cerep BioPrint panel)
Text: as §1

[10] = target: T10, kappa (KOP) (Rattus norvegicus, UniProt P34975); experiment: BioPrint panel: kappa (KOP) (agonist); type: binding; details: 1 micromolar, read-out: percentage of inhibition of activity
T10 construct: purchased Eurofins Pharma Discovery Services (KinaseProfiler; Cerep BioPrint panel)
Text: as §1

[11] = target: T11, AT2 (Homo sapiens, UniProt P50052); experiment: BioPrint panel: AT2 (h) (agonist); type: binding; details: 1 micromolar, read-out: percentage of inhibition of activity
T11 construct: purchased Eurofins Pharma Discovery Services (KinaseProfiler; Cerep BioPrint panel)
Text: as §1

[12] = target: T12, beta 3 (Homo sapiens, UniProt P13945); experiment: BioPrint panel: beta 3 (h) (antagonist); type: binding; details: 1 micromolar, read-out: percentage of inhibition of activity
T12 construct: purchased Eurofins Pharma Discovery Services (KinaseProfiler; Cerep BioPrint panel)
Text: as §1

[13] = target: T13, sst4 (Homo sapiens, UniProt P31391); experiment: BioPrint panel: sst4 (h) (agonist); type: binding; details: 1 micromolar, read-out: percentage of inhibition of activity
T13 construct: purchased Eurofins Pharma Discovery Services (KinaseProfiler; Cerep BioPrint panel)
Text: as §1

[14] = target: T14, PPARgamma (Homo sapiens, UniProt P37231); experiment: BioPrint panel: PPARgamma (h) (agonist); type: binding; details: 1 micromolar, read-out: percentage of inhibition of activity
T14 construct: purchased Eurofins Pharma Discovery Services (KinaseProfiler; Cerep BioPrint panel)
Text: as §1

[15] = target: T15, MC4 (Homo sapiens, UniProt P32245); experiment: BioPrint panel: MC4 (h) (agonist); type: binding; details: 1 micromolar, read-out: percentage of inhibition of activity
T15 construct: purchased Eurofins Pharma Discovery Services (KinaseProfiler; Cerep BioPrint panel)
Text: as §1

[16] = target: T16, inducible NOS (Mus musculus, UniProt P29477); experiment: BioPrint panel: inducible NOS; type: biochemical; details: 1 micromolar, read-out: percentage of inhibition of activity
T16 construct: purchased Eurofins Pharma Discovery Services (KinaseProfiler; Cerep BioPrint panel)
Text: as §1

[17] = test system: N muscle-type; experiment: BioPrint panel: N muscle-type (h) (antagonist); type: binding, human; details: 1 micromolar
Text: as §1

[18] = target: T17, ACE (Homo sapiens, UniProt P12821); experiment: BioPrint panel: ACE (h); type: biochemical; details: 1 micromolar
T17 construct: purchased Eurofins Pharma Discovery Services (KinaseProfiler; Cerep BioPrint panel)
Text: as §1

[19] = target: T18, Abl (Homo sapiens, UniProt P00519); experiment: BioPrint panel: Abl kinase (h); type: biochemical; details: 1 micromolar, read-out: percentage of inhibition of activity
T18 construct: purchased Eurofins Pharma Discovery Services (KinaseProfiler; Cerep BioPrint panel)
Text: as §1

[20] = target: T19, Lyn A kinase (Homo sapiens, UniProt P07948); experiment: BioPrint panel: Lyn A kinase (h); type: biochemical; details: 1 micromolar, read-out: percentage of inhibition of activity
T19 construct: purchased Eurofins Pharma Discovery Services (KinaseProfiler; Cerep BioPrint panel)
Text: as §1

[21] = target: T20, CCR2 (Homo sapiens, UniProt P41597); experiment: BioPrint panel: CCR2 (h) (agonist); type: binding; details: 1 micromolar, read-out: percentage of inhibition of activity
T20 construct: purchased Eurofins Pharma Discovery Services (KinaseProfiler; Cerep BioPrint panel)
Text: as §1

[22] = target: T21, VPAC1 (VIP1) (Homo sapiens, UniProt P32241); experiment: BioPrint panel: VPAC1 (VIP1) (h) (agonist); type: binding; details: 1 micromolar, read-out: percentage of inhibition of activity
T21 construct: purchased Eurofins Pharma Discovery Services (KinaseProfiler; Cerep BioPrint panel)
Text: as §1

T17 sequence (P12821 30-1306): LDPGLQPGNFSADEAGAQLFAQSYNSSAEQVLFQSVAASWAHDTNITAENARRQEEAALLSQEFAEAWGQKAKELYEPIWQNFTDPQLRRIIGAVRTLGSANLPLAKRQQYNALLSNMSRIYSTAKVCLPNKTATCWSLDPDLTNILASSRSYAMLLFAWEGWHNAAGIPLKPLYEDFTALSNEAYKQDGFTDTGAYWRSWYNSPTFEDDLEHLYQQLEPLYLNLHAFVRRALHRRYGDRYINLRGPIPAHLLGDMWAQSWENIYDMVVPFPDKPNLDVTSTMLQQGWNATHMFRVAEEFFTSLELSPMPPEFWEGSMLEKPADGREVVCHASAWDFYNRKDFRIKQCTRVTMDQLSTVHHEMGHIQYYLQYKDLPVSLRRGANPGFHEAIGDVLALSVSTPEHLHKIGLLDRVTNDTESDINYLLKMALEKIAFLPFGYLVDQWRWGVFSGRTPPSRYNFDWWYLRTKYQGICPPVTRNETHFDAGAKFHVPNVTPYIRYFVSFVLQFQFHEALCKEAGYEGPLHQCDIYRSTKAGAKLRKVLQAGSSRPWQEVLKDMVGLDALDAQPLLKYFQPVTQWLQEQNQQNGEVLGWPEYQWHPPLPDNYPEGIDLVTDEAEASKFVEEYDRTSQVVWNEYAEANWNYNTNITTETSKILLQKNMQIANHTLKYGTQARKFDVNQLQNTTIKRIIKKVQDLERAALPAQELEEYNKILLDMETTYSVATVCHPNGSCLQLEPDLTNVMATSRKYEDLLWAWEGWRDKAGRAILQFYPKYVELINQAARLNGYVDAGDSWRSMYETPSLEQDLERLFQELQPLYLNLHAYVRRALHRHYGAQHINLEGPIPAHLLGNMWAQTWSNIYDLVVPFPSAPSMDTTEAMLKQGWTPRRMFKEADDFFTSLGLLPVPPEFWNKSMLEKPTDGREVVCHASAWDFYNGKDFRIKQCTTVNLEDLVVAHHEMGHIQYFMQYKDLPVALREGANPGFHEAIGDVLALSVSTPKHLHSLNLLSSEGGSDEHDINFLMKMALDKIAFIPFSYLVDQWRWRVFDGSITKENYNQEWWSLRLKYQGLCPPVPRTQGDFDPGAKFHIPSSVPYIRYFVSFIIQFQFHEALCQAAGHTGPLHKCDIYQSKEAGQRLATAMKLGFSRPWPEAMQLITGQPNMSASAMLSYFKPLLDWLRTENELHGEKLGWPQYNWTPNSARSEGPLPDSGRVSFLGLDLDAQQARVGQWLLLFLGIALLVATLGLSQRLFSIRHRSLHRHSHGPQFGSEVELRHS
T20 sequence (P41597 whole entry): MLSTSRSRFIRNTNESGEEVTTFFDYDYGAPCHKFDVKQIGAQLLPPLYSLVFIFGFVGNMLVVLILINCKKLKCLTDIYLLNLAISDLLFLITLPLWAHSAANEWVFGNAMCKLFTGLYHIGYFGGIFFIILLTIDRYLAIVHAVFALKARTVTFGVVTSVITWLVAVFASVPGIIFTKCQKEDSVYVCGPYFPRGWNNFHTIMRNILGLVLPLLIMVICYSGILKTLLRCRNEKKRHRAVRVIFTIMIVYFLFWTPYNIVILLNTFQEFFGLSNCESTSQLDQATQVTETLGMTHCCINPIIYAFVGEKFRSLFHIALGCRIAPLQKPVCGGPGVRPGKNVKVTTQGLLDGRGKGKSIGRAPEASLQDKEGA
T19 sequence (P07948 whole entry): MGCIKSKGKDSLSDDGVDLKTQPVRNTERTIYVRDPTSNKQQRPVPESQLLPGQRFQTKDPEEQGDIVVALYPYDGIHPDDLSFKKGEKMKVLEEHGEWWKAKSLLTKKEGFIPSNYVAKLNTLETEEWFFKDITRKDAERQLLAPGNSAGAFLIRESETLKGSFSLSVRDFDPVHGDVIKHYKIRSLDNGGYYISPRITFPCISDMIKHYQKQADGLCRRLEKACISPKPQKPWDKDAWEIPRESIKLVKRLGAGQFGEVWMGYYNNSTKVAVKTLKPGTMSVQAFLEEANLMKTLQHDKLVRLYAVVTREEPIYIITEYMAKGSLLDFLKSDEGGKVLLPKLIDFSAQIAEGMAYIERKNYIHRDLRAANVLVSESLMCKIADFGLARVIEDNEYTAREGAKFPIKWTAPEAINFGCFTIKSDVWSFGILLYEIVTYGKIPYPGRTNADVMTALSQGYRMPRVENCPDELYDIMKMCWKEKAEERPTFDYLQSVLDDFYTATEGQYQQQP
T4 sequence (P24530 27-442): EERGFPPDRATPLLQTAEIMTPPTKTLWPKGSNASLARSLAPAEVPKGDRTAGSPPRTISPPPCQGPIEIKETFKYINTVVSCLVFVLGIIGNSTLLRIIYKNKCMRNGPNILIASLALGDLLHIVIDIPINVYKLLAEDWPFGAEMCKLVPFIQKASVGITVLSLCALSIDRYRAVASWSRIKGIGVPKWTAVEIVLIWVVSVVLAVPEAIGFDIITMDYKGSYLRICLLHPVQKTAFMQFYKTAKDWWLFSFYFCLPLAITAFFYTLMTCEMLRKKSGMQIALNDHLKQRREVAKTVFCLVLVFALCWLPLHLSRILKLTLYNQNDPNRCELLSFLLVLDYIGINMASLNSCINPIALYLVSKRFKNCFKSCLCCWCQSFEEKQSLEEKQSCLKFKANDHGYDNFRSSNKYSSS
T14 sequence (P37231 whole entry): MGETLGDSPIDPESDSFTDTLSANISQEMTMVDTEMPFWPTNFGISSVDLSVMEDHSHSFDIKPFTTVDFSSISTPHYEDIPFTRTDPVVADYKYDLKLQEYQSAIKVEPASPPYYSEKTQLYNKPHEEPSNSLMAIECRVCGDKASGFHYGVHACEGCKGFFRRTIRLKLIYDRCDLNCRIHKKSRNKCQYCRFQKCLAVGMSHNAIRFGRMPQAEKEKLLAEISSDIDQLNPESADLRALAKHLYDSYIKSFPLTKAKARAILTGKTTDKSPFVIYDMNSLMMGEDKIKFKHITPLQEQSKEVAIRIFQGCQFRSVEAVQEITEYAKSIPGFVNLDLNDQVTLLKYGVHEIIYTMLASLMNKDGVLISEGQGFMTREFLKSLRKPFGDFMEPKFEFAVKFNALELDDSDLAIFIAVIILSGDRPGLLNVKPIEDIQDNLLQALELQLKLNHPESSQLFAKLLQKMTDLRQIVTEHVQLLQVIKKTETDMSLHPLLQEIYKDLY
T13 sequence (P31391 whole entry): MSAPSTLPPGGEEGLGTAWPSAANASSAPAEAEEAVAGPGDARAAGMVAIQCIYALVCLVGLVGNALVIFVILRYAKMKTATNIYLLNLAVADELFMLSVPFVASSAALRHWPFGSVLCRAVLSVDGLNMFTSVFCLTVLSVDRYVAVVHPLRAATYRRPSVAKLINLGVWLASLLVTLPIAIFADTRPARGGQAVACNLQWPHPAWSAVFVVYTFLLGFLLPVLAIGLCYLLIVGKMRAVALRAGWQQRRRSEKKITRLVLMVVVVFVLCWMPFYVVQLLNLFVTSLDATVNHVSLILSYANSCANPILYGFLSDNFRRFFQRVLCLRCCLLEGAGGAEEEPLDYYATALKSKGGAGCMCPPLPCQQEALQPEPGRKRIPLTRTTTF
T7 sequence (P04150 whole entry): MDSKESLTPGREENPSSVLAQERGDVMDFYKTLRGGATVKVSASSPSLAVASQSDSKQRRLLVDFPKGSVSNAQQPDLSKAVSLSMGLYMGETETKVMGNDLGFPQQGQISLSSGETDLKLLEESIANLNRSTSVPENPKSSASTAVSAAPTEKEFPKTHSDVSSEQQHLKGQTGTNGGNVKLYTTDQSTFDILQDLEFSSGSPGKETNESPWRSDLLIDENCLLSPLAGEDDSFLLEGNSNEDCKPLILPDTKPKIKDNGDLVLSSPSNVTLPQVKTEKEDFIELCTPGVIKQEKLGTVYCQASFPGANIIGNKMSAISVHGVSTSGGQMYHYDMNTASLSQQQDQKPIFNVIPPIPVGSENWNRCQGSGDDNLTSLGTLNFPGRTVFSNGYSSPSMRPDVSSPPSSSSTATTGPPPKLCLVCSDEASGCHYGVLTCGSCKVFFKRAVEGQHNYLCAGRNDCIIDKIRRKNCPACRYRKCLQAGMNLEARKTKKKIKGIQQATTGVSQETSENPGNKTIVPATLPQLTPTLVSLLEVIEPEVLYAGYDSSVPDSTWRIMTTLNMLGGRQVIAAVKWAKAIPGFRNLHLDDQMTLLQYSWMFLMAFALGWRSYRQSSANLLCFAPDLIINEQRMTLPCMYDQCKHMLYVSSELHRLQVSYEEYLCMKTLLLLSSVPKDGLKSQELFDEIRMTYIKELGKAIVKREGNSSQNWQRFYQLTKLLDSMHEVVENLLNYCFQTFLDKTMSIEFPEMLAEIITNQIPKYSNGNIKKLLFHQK
T12 sequence (P13945 whole entry): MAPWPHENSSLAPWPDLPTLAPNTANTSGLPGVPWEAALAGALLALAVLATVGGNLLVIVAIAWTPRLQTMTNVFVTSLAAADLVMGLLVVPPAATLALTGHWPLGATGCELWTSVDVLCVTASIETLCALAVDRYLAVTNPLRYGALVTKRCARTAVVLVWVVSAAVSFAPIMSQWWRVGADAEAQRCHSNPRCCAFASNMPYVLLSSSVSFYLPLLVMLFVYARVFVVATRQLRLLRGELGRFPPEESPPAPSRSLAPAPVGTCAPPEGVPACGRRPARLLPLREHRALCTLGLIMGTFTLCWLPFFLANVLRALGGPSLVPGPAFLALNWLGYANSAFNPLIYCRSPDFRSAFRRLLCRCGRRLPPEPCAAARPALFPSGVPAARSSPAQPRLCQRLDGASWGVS
T3 sequence (P25105 whole entry): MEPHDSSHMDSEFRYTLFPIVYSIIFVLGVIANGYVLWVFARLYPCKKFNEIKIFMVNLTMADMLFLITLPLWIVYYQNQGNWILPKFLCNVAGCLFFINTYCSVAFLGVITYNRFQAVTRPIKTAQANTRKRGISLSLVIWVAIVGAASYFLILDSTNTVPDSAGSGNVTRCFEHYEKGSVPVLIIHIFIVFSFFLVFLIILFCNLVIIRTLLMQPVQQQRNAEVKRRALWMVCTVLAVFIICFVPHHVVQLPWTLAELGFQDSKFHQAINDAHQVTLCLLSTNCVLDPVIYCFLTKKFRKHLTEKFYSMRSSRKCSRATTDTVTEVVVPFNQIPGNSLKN

## Cn1cc(-c2cccc(-c3nc(C(=O)NC4C5CC6CC4CC(O)(C6)C5)c(N)nc3N)c2)cn1 (stereo not shown) [compound 4]
[1]
  inhibition at 1 µM: 3%
[2]
  percentage of inhibition of activity: INTER
[3]
  inhibition at 1 µM: -2.1%
[4]
  inhibition at 1 µM: -6.7%
[5]
  inhibition at 1 µM: -4.3%
[6]
  inhibition at 1 µM: 2.4%
[7]
  inhibition at 1 µM: 0.9%
[8]
  inhibition at 1 µM: 15.4%
[9]
  inhibition at 1 µM: 26.7%
[10]
  inhibition at 1 µM: 11.8%
[11]
  inhibition at 1 µM: -8%
[12]
  inhibition at 1 µM: 8.1%
[13]
  inhibition at 1 µM: -11.8%
[14]
  inhibition at 1 µM: 3.2%
[15]
  inhibition at 1 µM: -5.1%
[16]
  inhibition at 1 µM: -8.8%
[17]
  percentage of inhibition of activity: -17.1%
[18]
  percentage of inhibition of activity: INTER
[19]
  inhibition at 1 µM: -4.6%
[20]
  inhibition at 1 µM: 0.1%
[21]
  inhibition at 1 µM: 2.6%
[22]
  inhibition at 1 µM: -4.6%
